Data published in patent US11464749B2, “Bismuth-thiol compositions and methods of use” (Microbion Corporation, priority 2018, dated 2022).
In brackets after ≈: the same amount, converted by molar mass. Like-named read-outs stand apart in the source and are kept apart here.

Legend:
[1] = test system: vancomycin-intermediate Staphylococcus aureus (VISA); assay: Broth microdilution MIC (Example 12)
[2] = Particle size distribution of BisEDT samples vs processing conditions (Table 111); type: physicochemical; conditions: BisEDT sample
Method: It was observed that careful control of the reaction temperature and the rate of 1,2 ethanedithiol addition had pronounced impact on the BisEDT particle size distribution.
To a 1-L jacketed reactor was charged USP water (480 mL, 48 vol), followed by 70% HNO3 (34 mL, 3.4 vol). A solution of bismuth subnitrate (10 g, 6.84 mmols) in water (43 mL, 4.3 vol) and 70% HNO3 (14 mL, 1.4 vol) was added at 20° C. The reaction mixture was cooled to 15° C. for addition of 95% Ethanol. The 95% ethanol (180 mL, 18 vol) was then added slowly. (Ethanol addition is exothermic, temperature reached 22° C.). The temperature was then adjusted back to 20° C. […] The reaction was stirred at 20° C. overnight. The reaction mixture was filtered through polypropylene cloth and washed with 95% ethanol (45 mL, 4.5 vol). The wet cake was charged back to the reactor and slurried in 95% ethanol (380 mL, 38 vol) for two hours at 20° C. The suspension was then filtered (same cloth) and washed with 95% ethanol (30 mL, 3 vol). The wet cake was again slurried in 95% EtOH (170 mL, 17 vol) at 20° C., filtered (same cloth), and washed with 95% ethanol (30 mL, 3 vol). The wet cake was then slurried in acetone (170 mL, 17 vol) at 20° C. overnight, followed by filtration (same cloth) and acetone wash (20 mL, 2 vol). The acetone (170 ml, 17 vol) treatment was repeated on the solids and stirred for 2 hours. The suspension was filtered (same cloth) and washed with acetone (30 mL, 3 vol) and died at 45° C. and dried at 45° C. (18 hours) to provide canary yellow solid (10.81 g 91.0%).
Representative synthesis of BisEDT at 15° C. with 1 hour addition of thiol via syringe pump, and polypropylene cloth for filtration: The synthesis BisEDT was performed on 10-g scale, temperature profile was studied with data logger. Ethane dithiol was added at 15° C. over 1 hour via syringe pump and the filtration was performed using PP filter cloth. To a 1-L jacketed reactor was charged USP water (480 mL, 48 vol) and cooled to 15° C., followed by 70% HNO3 (34 mL, 3.4 vol). A solution of bismuth subnitrate (10 g, […]) in water (43 mL, 4.3 vol) and 70% HNO3 (14 mL, 1.4 vol) was added at the same temperature. The 95% ethanol (180 mL, 18 vol) was then added slowly. […] It was then allowed to cool to 15° C. This was followed by dropwise addition of 1,2 ethanedithiol (4.3 mL, […] in 95% ethanol in 94 mL, 9.4 vol) over an hour with the batch temperature at 15° C. The reaction was allowed to stir at 15° C. overnight. The reaction mixture was filtered through polypropylene cloth and washed with 95% ethanol (45 mL, 4.5 vol). The wet cake was charged back to the reactor and slurried in 95% ethanol (380 mL, 38 vol) for two hours at 20° C. The suspension was then filtered (same cloth) and washed with 95% ethanol (30 mL, 3 vol). The wet cake was again slurried in 95% EtOH (170 mL, 17 vol) at 20° C., filtered (same cloth), and washed with 95% ethanol (30 mL, 3 vol). The wet cake was then slurried in acetone (170 mL, 17 vol) at 20° C. overnight, followed by filtration (same cloth) and acetone wash (20 mL, 2 vol). The acetone (170 ml, 17 vol) treatment was repeated on the solids and stirred for 2 hours. The suspension was filtered (same cloth) and washed with acetone (30 mL, 3 vol) and died at 45° C. and dried at 45° C. (18 hours) to provide canary yellow solid (10.43 g 87.8%).

| SMILES | D (10) [2] | D (50) [2] | D (90) [2] | D [4,3] [2] | other results |
| --- | --- | --- | --- | --- | --- |
| CC(=O)NC[C@H]1CN(c2ccc(N3CCOCC3)c(F)c2)C(=O)O1 [LZD] | – | – | – | – | MIC ([1]; S. aureus NRS 1 (hVISA)): 1 mg/L (≈ 2.96 µM); MIC ([1]; S. aureus NRS 2): 4 mg/L (≈ 11.9 µM); MIC ([1]; S. aureus NRS 3): 1 mg/L (≈ 2.96 µM); MIC ([1]; S. aureus NRS 4): 1 mg/L (≈ 2.96 µM); MIC ([1]; S. aureus NRS 13): 2 mg/L (≈ 5.93 µM); MIC ([1]; S. aureus NRS 18): 1 mg/L (≈ 2.96 µM); MIC ([1]; S. aureus NRS 22): 1 mg/L (≈ 2.96 µM); MIC ([1]; S. aureus NRS 24 (hVISA)): 2 mg/L (≈ 5.93 µM); MIC ([1]; S. aureus NRS 27): 2 mg/L (≈ 5.93 µM) |
| C1C[S][Bi]([S]CC[S][Bi]2[S]CC[S]2)[S]1 [Sample 11] | 0.38 μm | 1.2 μm | 2.4 μm | 1.4 μm | – |
| CCC[C@@H]1C[C@@H](C(=O)N[C@@H]([C@H]2O[C@H](SC)[C@H](O)[C@@H](O)[C@H]2O)[C@H](C)Cl)N(C)C1 [CLI] | – | – | – | – | MIC ([1]; S. aureus NRS 1 (hVISA)): >8 mg/L; MIC ([1]; S. aureus NRS 2): >8 mg/L; MIC ([1]; S. aureus NRS 3): >8 mg/L; MIC ([1]; S. aureus NRS 4): >8 mg/L; MIC ([1]; S. aureus NRS 13): 0.06 mg/L (≈ 0.141 µM); MIC ([1]; S. aureus NRS 18): >8 mg/L; MIC ([1]; S. aureus NRS 22): >8 mg/L; MIC ([1]; S. aureus NRS 24 (hVISA)): >8 mg/L; MIC ([1]; S. aureus NRS 27): >8 mg/L |
| C1C[S][Bi]([S]CC[S][Bi]2[S]CC[S]2)[S]1 [Sample 7] | 0.39 μm | 1.3 μm | 1.6 μm | 1.4 μm | – |
| C1C[S][Bi]([S]CC[S][Bi]2[S]CC[S]2)[S]1 [Sample 8] | 0.36 μm | 1.0 μm | 1.8 μm | 1.0 μm | – |
| CCCCCCCCCC(=O)NC(Cc1c[nH]c2ccccc12)C(=O)NC(CC(N)=O)C(=O)NC(CC(=O)O)C(=O)NC1C(=O)NCC(=O)NC(CCCN)C(=O)NC(CC(=O)O)C(=O)NC(C)C(=O)NC(CC(=O)O)C(=O)NCC(=O)NC(CO)C(=O)NC(C(C)CC(=O)O)C(=O)NC(CC(=O)c2ccccc2N)C(=O)OC1C (stereo not shown) [DAP] | – | – | – | – | MIC ([1]; S. aureus NRS 1 (hVISA)): 1 mg/L (≈ 0.617 µM); MIC ([1]; S. aureus NRS 2): 0.25 mg/L (≈ 0.154 µM); MIC ([1]; S. aureus NRS 3): 1 mg/L (≈ 0.617 µM); MIC ([1]; S. aureus NRS 4): 0.5 mg/L (≈ 0.309 µM); MIC ([1]; S. aureus NRS 13): 2 mg/L (≈ 1.23 µM); MIC ([1]; S. aureus NRS 18): 0.5 mg/L (≈ 0.309 µM); MIC ([1]; S. aureus NRS 22): 2 mg/L (≈ 1.23 µM); MIC ([1]; S. aureus NRS 24 (hVISA)): 0.5 mg/L (≈ 0.309 µM); MIC ([1]; S. aureus NRS 27): 0.25 mg/L (≈ 0.154 µM) |
| C1C[S][Bi]([S]CC[S][Bi]2[S]CC[S]2)[S]1 [Sample 6] | 0.34 μm | 0.87 μm | 1.8 μm | 0.98 μm | – |
| C1C[S][Bi]([S]CC[S][Bi]2[S]CC[S]2)[S]1.SCCS [Sample 3] | 0.59 μm | 1.9 μm | 4.5 μm | 2.3 μm | – |
| C1C[S][Bi]([S]CC[S][Bi]2[S]CC[S]2)[S]1 [Sample 10] | 0.36 μm | 0.88 μm | 1.7 μm | 0.97 μm | – |
| C1C[S][Bi]([S]CC[S][Bi]2[S]CC[S]2)[S]1 [Sample 13] | 0.36 μm | 0.98 μm | 2.1 μm | 1.2 μm | – |
| C1C[S][Bi]([S]CC[S][Bi]2[S]CC[S]2)[S]1 [Sample 14] | 0.36 μm | 1.0 μm | 2.1 μm | 1.2 μm | – |
| CC(=O)NC[C@H]1CN(c2ccc(N3CCOCC3)c(F)c2)C(=O)O1 [linezolid, reference compound] | – | – | – | – | MIC ([1]; Staphylococcus aureus, VISA, read-out: MIC values): ≤ 4 mg/L |
| C1C[S][Bi]([S]CC[S][Bi]2[S]CC[S]2)[S]1 [Sample 12] | 0.37 μm | 1.2 μm | 2.4 μm | 1.3 μm | – |
| C1C[S][Bi]([S]CC[S][Bi]2[S]CC[S]2)[S]1 [Sample 9] | 0.67 μm | 1.0 μm | 1.9 μm | 1.1 μm | – |
| C1C[S][Bi]([S]CC[S][Bi]2[S]CC[S]2)[S]1.SCCS [Sample 1] | 0.80 μm | 2.4 μm | 5.9 μm | 2.9 μm | – |
| C1C[S][Bi]([S]CC[S][Bi]2[S]CC[S]2)[S]1 [Sample 4] | 0.44 μm | 1.48 μm | 3.1 μm | 1.7 μm | – |
| C1C[S][Bi]([S]CC[S][Bi]2[S]CC[S]2)[S]1 [Sample 2] | 0.58 μm | 1.7 μm | 3.9 μm | 2.0 μm | – |
| C1C[S][Bi]([S]CC[S][Bi]2[S]CC[S]2)[S]1 [Sample 5] | 0.33 μm | 0.72 μm | 1.6 μm | 0.86 μm | – |
| C1C[S][Bi]([S]CC[S][Bi]2[S]CC[S]2)[S]1 [Sample 15] | 0.32 μm | 0.72 μm | 1.6 μm | 0.86 μm | – |
| CN[C@H](CC(C)C)C(=O)N[C@H]1C(=O)N[C@@H](CC(N)=O)C(=O)N[C@H]2C(=O)N[C@H]3C(=O)N[C@H](C(=O)N[C@H](C(=O)O)c4cc(O)cc(O)c4-c4cc3ccc4O)[C@H](O)c3ccc(c(Cl)c3)Oc3cc2cc(c3O[C@@H]2O[C@H](CO)[C@@H](O)[C@H](O)[C@H]2O[C@H]2C[C@](C)(N)[C@H](O)[C@H](C)O2)Oc2ccc(cc2Cl)[C@H]1O [VAN] | – | – | – | – | MIC ([1]; S. aureus NRS 1 (hVISA)): 4 mg/L (≈ 2.76 µM); MIC ([1]; S. aureus NRS 2): 0.5 mg/L (≈ 0.345 µM); MIC ([1]; S. aureus NRS 3): 8 mg/L (≈ 5.52 µM); MIC ([1]; S. aureus NRS 4): 4 mg/L (≈ 2.76 µM); MIC ([1]; S. aureus NRS 13): 2 mg/L (≈ 1.38 µM); MIC ([1]; S. aureus NRS 18): 4 mg/L (≈ 2.76 µM); MIC ([1]; S. aureus NRS 22): 4 mg/L (≈ 2.76 µM); MIC ([1]; S. aureus NRS 24 (hVISA)): 2 mg/L (≈ 1.38 µM); MIC ([1]; S. aureus NRS 27): 2 mg/L (≈ 1.38 µM) |
